Measured values published in patent US20240336638A1, “IMIDAZOLE COMPOUND, AND INTERMEDIATE AND APPLICATION THEREOF” (priority 2021, published 2024).
Where two headings read alike, the source gives them in different places.

Experiments:
MCAO/R rats = test: Therapeutic administration (i.v.) in middle cerebral artery occlusion/reperfusion (MCAO/R) rats; type: in vivo, rat; settings: for Bleeding time / Brain water content (%) / Cerebral infarction rate (%) / Clotting time / Neurological function score: once a day for 3 days, mean ± SD, n = 8; for Neurological function score: modified Bederson score
Experimental: Male SD rats weighing 250 to 300 g were taken, and the rats in each group fasted for 12 hours before modeling, while water was not restricted. According to the method of Longa et al.^[1], a rat model of MCAO/R was established by occluding the blood flow of internal carotid artery using the thread embolization method. The rats were anesthetized with 3% chloral hydrate (300 mg/kg, 1 mL/100 g body weight) through intraperitoneal injection and fixed in the supine position on the operating table. A midline incision was made in the neck, and the right common carotid artery was isolated using forceps and threaded for later use. The external and internal carotid arteries were isolated from the bifurcation of the common carotid artery. A single thread was threaded through the internal carotid artery, and two threads were threaded through the external carotid artery. Both distal and proximal ends were ligated, and the middle part of the ligation site was cut using ophthalmic scissors. The proximal main trunk of the external carotid artery was isolated and reserved for later use. The prepared cotton thread was used to half-ligate the common carotid artery (tying a slipknot), and the thread prepared for the internal carotid artery was tightened with hemostatic forceps, temporarily occluding the blood flow of the internal carotid artery. A small incision at the proximal main trunk of the external carotid artery was made using ophthalmic scissors, and then, the fishing line was held with straight forceps, inserted from this incision, and slowly advanced through the isolated proximal main trunk of the external carotid artery towards the intracranial direction of the internal carotid artery. The advancement was stopped at a predetermined position, and then the thread of the internal carotid artery that was tightened with the hemostatic forceps was loosened. […] Another thread was threaded and tightened around the proximal main trunk of the external carotid artery and the fishing line that had already been inserted into the predetermined position. The half-ligated thread on the common carotid artery was then loosened, and the skin was subsequently sutured. After 2 hours of ischemia, a small section of the fishing line was pulled out. […] After rats in the blank control group were anesthetized, only the bifurcation of the internal and external carotid arteries was exposed without the occlusion of the MCA.
Successfully modeled rats (neurological function score of 3 after reperfusion) were taken and divided into 20 groups (8 rats for each) according to the random number table method. The groups were divided into a model control group, three dose groups (high, 12 mg/kg, 2.4 mg/mL; medium, 6 mg/kg, 1.2 mg/mL; low, 3 mg/kg, 0.6 mg/mL) for each of the six test compounds, and a positive drug Ozagrel group (6 mg/kg, 1.2 mg/mL), respectively. Both blank and model control groups were administered equal volumes of mixed solvents, and the rats in each group were administered by tail vein injection (i.v.) 2 hours after reperfusion, once a day for 3 consecutive days, with a volume of 0.5 mL/100 g body weight.
Ten minutes after the last administration, the neurological function of the animals was graded according to the modified Bederson scoring method. The standard is as follows[2]: • 0 point: no neurological symptoms; • 1 point: when the rat is suspended by lifting its tail, the forelimb on the surgical side of the rat was flexed and pressed against the chest wall; • 2 points: on a smooth plane, when the rat is pushed from the surgical side to the opposite side, the resistance is less than when it is moved to the same side; • 3 points: the animal moves around or in circles when moving freely; • 4 points: flaccid paralysis, no spontaneous movement of limbs.
After Bederson scoring, the rats were executed by cervical dislocation, and the whole brain was removed and weighed. After weighing, the whole brain was placed in a −20° C. refrigerator for 20 minutes. […]

[1] = Blood-brain barrier (BBB) study in SD rats after single IV and PO administration, brain; type: in vivo; settings: for Cmax / Tmax / half-life / MRT last / MRT inf: Sprague-Dawley (SD); for MRT last: read-out: MRT(0−t); for MRT inf: read-out: MRT(0−∞); for T1/2 and AUC(0-∞) in the brain tissue: compared to Ozagrel
Experimental: Effect Example 3: Pharmacokinetic and blood-brain barrier (BBB) studies of compounds after single intravenous (IV) and oral (PO) administration in SD rats
(§1) The experimental method of administration by gavage injection in rats: SD rats weighing 180 to 220 g were fasted for 12 hours prior to the experiment, with free access to water. After administration, food and water were withheld for 4 hours. After this 4-hour period, the rats were allowed free access to water, and food was provided after 8 hours. The drugs were administered at a set dose. N=3, blood samples were taken before administration, and 5 minutes, 0.25 hours, 0.5 hours, 0.75 hours, 1 hour, 2 hours, 4 hours, 8 hours, and 24 hours after administration, respectively, and placed into sodium heparin anticoagulant tubes. The tubes were centrifuged for 1 hour at 4° C. and at 8000 rpm for 5 minutes, and the plasma was then separated and stored in centrifuge tubes at −70° C. for analysis.
as §1, with “of intravenous” for “of”, “to” for “by gavage injection in”
The plasma concentration-time data were processed using the Phoenix® WinNonlin® 8.0 program to calculate pharmacokinetic parameters.
Among them, Cmax and Tmax are measured values, the elimination rate constant k of the tail section of the C-t curve is obtained from the linear regression of LnC-t, and the value of AUC0-4 is calculated by the trapezoidal area method, and the area under the curve from 0 to ∞ time is AUC=AUC0-4+Ct/k.

[2] = medium dose 6 mg/kg i.v. (Ozagrel group 6 mg/kg)

| Compound | Bleeding time (MCAO/R rats; [2]) [s] | Brain water content (%) (MCAO/R rats; [2]) | Cerebral infarction rate (%) (MCAO/R rats; [2]) | Clotting time (MCAO/R rats; [2]) [s] | Neurological function score (MCAO/R rats; [2]) | Cmax ([1]; rat brain, IV 1 mg/kg) [ng/g] | Tmax ([1]; rat brain, IV 1 mg/kg) [min] | half-life ([1]; rat brain, IV 1 mg/kg) [min] | MRT last ([1]; rat brain, IV 1 mg/kg) [h] | MRT inf ([1]; rat brain, IV 1 mg/kg) [h] | Cmax ([1]; rat brain, PO 6 mg/kg) [ng/g] | Tmax ([1]; rat brain, PO 6 mg/kg) [min] | half-life ([1]; rat brain, PO 6 mg/kg) [min] | MRT last ([1]; rat brain, PO 6 mg/kg) [h] | MRT inf ([1]; rat brain, PO 6 mg/kg) [h] | AUC(0−t) ([1]; rat brain, IV 1 mg/kg) [ng·h/g] | AUC(0−∞) ([1]; rat brain, IV 1 mg/kg) [ng·h/g] | AUC(0−t) ([1]; rat brain, PO 6 mg/kg) [ng·h/g] | other results |
| --- | --- | --- | --- | --- | --- | --- | --- | --- | --- | --- | --- | --- | --- | --- | --- | --- | --- | --- | --- |
| O=C(O)/C=C/c1ccc(Cn2ccnc2)cc1 [Ozagrel, reference compound] | 300.00 ± 26.93 | 79.73 ± 2.02 | 21.70 | 154.50 ± 16.91 | 1.50 ± 0.93 | 27.6 | 4.8 | 6.6 | 0.15 | 0.17 | 42.6 | 15 | 24 | 0.59 | 0.68 | 4.96 | 5.25 | 35.86 | AUC(0−∞) ([1]; rat brain, PO 6 mg/kg): 37.46 ng·h/g |
| O=C(O)[C@@H]1C[C@H]1c1ccc(Cn2cnc(Cl)c2)c(Cl)c1 [Compound 11, (1R,2R)-2-(3-Chloro-4-((4-chloro-1H-imidazol-1-yl)methyl)phenyl)cyclopropane-1-carboxylic acid] | 279.75 ± 37.97 | 80.33 ± 1.65 | 19.96 | 136.63 ± 9.80 | 2.00 ± 0.53 | 57.5 | 60 | 1170 | 9.49 | 27.4 | 385 | 240 | 1180 | 9.94 | 28.5 | 855.25 | 1475.23 | 7014.55 | neurological deficits in rats (MCAO/R rats; high dose): can significantly reduce; Bleeding time (MCAO/R rats; high dose 12 mg/kg i.v.): 319.25 ± 49.38 s; Brain water content (%) (MCAO/R rats; high dose 12 mg/kg i.v.): 80.58 ± 0.77%; Cerebral infarction rate (%) (MCAO/R rats; high dose 12 mg/kg i.v.): 13.53%; Clotting time (MCAO/R rats; high dose 12 mg/kg i.v.): 152.81 ± 29.69 s; Neurological function score (MCAO/R rats; high dose 12 mg/kg i.v.): 1.25 ± 0.46; improving the neurological function scores of the rats (MCAO/R rats; high dose, comparison among test drugs): more advantageous; reducing the infarct area (smallest mean infarct rate) (MCAO/R rats; high doses, comparison among test drugs): more advantageous; cerebral edema in rats (MCAO/R rats; low dose): did not significantly improve; Bleeding time (MCAO/R rats; low dose 3 mg/kg i.v.): 307.63 ± 64.59 s; Brain water content (%) (MCAO/R rats; low dose 3 mg/kg i.v.): 82.04 ± 1.91 %; Cerebral infarction rate (%) (MCAO/R rats; low dose 3 mg/kg i.v.): 28.07 ± 4.88%; Clotting time (MCAO/R rats; low dose 3 mg/kg i.v.): 138.38 ± 27.34 s; Neurological function score (MCAO/R rats; low dose 3 mg/kg i.v.): 2.25 ± 0.46; T1/2 and AUC(0-∞) in the brain tissue ([1]; intravenously at 1 mg/kg): significantly increased; T1/2 and AUC(0-∞) in the brain tissue ([1]; orally at 6 mg/kg): significantly increased; AUC(0−∞) (h*ng/g) ([1]; rat brain, PO 6 mg/kg): 12,439.74 h*ng/g |
